Common to all, as to format: cell-based, human
Test [1] has as its system U2OS stable cells expressing the pCORON1002-EGFP-C1-PSLD construct. Description: Chemical cell cycle block studies on EGFP-PSLD stable cell line (IN Cell Analyzer imaging). Conditions: for % G1: % of cells per field of view in G1-phase; for % G2: % of cells per field of view in G2-phase; for % S: % of cells per field of view in S-phase; for Total cells: total number of cells per field of view. The protocol: Stable cells expressing the pCORON1002-EGFP-C1-PSLD construct, were seeded at 0.3×10^5/ml in 96-well Greiner plates using antibiotic-free medium (100 μl/well) and incubate for 16 hours.
For chemical block studies (Table 1), stable cells were exposed to olomoucine, roscovitine, nocodazole, mimosine, colcemid or colchicine (Sigma). Cells were fixed in 2% formalin and nuclei stained with hoechst (2 μM).
After high throughput imaging and analysis on the IN Cell Analyzer system (GEHC), data for average nuclear intensity and N:C ratio (EGFP signal), nuclear size (hoescht signal) and, where appropriate, nuclear signal intensity (BrdU) were obtained for the total number of individual cells in a field of view using hoescht as a nuclear mask and the IN Cell Analyzer 3000 cell cycle phase marker algorithm (GEHC). For each well, the total number of cells per field of view were catagorised into G1-phase (predominantly nuclear EGFP distribution; high EGFP-PSLD nuclear intensity and N:C ratio), S-phase (nuclear BrdU signal >3SDs above background; EGFP-PSLD N:C ratio around 1) and G2-phase (large nuclear size; low EGFP-PSLD N:C ratio).

For test [2], the system named is CRM1-mediated nuclear export. As to the kind of experiment: Block of nuclear protein export: localization of GFP-HDHB and FLAG-HDHB in U2OS cells with LMB. Particulars: in the presence of LMB (10 ng/ml, 3 h, with 10 μM cycloheximide); asynchronous, G1 and S phase U2OS cells. The protocol:
Cell cycle synchronization was verified by flow cytometry as described previously (Taneja et al., J. Biol. Chem., (2002) 277, 40853-40861). In experiments to block nuclear protein export, cells were cultured for 3 h in DMEM containing 10 ng/ml of leptomycin B (LMB) and 10 μM cycloheximide (Calbiochem, San Diego, Calif.) to prevent new protein synthesis. Cells plated on glass coverslips were microinjected as described (Herbig et al., 1999) except that plasmid DNA rather than protein was injected.
For indirect immunofluorescence staining, cells were washed three times with phosphate buffered saline (PBS), fixed with 3.7% formaldehyde in PBS for 20 min, permeabilized for 5 min in 0.2% Triton X-100, and incubated with 10% FBS in PBS for 45 min. FLAG-HDHB was detected with mouse monoclonal anti-FLAG antibody (Sigma-Aldrich), 1:100 in PBS plus 10% FBS for 2 h at room temperature. After washing, cells were incubated with Texas Red-conjugated goat anti-mouse secondary antibody (Jackson ImmunoResearch Laboratories, West Grove, Pa.) at 1:100 in PBS plus 10% FBS for 1 h at room temperature. […] The subcellular distribution of each protein was quantitatively evaluated in at least two independent experiments.
For GFP fluorescence, cells were washed three times with phosphate-buffered saline (PBS), fixed with 3.7% formaldehyde containing 2 μM Hoechst 33258 for 20 min and imaged and evaluated as above.

In test [3] the test system is EGFP-PSLD stable cell lines (U2OS). As to the kind of experiment: Kinetic imaging (24 hours) of EGFP-PSLD stable cell lines treated with olomoucine. Conditions: cells arrested in G2, without passing through mitosis; kinetic imaging over 24 hours. The protocol: Where appropriate, for high throughput imaging, kinetic imaging (24 hr) and analysis in multiwell plate format of stable cell lines flourescence microscopy was conducted using a high throughput confocal imaging system (IN Cell Analyzer 1000 or IN Cell Analyzer 3000, GE Healthcare, Amersham, UK) on cells transfected with pCORON1002-EGFP-C1-PSLD, pCORON1002-EGFP-C1-βGal-PSLD or redFP derivatives of these vectors. Images were analysed using the cell cycle phase marker algorithm (GE Health Care).

Experimental findings from patent US7897741B2, “Cell cycle phase markers” (GE Healthcare UK Limited, priority 2004, dated 2011) are described below.

On to `CN[C@H]1CCc2cc(OC)c(OC)c(OC)c2-c2ccc(OC)c(=O)cc21` [Colcemid], for which, in test [1] (0.3 μM), the “% G1” value worked out at 16%, the “% G2” value was found to be 43%, the “% S” value amounted to 41% and the Total cells is recorded as 490. Further, in test [1] (1.2 μM), the “% G1” value was determined as 8%, the “% G2” value turned out to be 59%, the “% S” value amounted to 32% and the Total cells worked out at 450.

For `COc1cc2c(c(OC)c1OC)-c1ccc(OC)c(=O)cc1[C@@H](NC(C)=O)CC2` [Colchicine], in test [1] (4 μM), the “% G1” value is given as 9%, the “% G2” value was determined as 55%, the “% S” value turned out to be 36% and the Total cells was found to be 467. For the same compound, in test [1] (100 μM), the “% G1” value is on record as 12%, the “% G2” value is recorded as 57%, the “% S” value was found to be 32% and the Total cells was found to be 439.

For the compound `N[C@@H](Cn1ccc(=O)c(O)c1)C(=O)O` [L-mimosine], in test [1] (2 mM), the “% G1” value came to 6%, the “% G2” value worked out at 26%, the “% S” value was 68% and the Total cells turned out to be 1710.

With `CCC(=C/[C@H](C)C/C=C/C(C)=C/[C@@H](C)C(=O)[C@@H](C)[C@H](O)[C@@H](C)C/C(C)=C/C(=O)O)/C=C/[C@@H]1OC(=O)C=C[C@@H]1C` [LMB, Leptomycin B], the “Localization of GFP-HDHB and FLAG-HDHB fusion proteins” value in test [2] is on record as “accumulated in the nucleus independently of the cell cycle”.

Consider `COC(=O)Nc1nc2ccc(C(=O)c3cccs3)cc2[nH]1` [Nocodazole], for which, in test [1] (3 μM), the “% G1” value came out at 6%, the “% G2” value is listed as 61%, the “% S” value is reported as 33% and the Total cells was 606.

Regarding `Cn1cnc2c(NCc3ccccc3)nc(NCCO)nc21` [Olomoucine], in test [1] (500 μM), the “% G1” value was found to be 63%, the “% G2” value is on record as 4%, the “% S” value worked out at 33% and the Total cells amounted to 600. Besides, the “Time for EGFP-PSLD signal to redistribute from the cytoplasm to the nucleus” value in test [3] fell in the range of 4 to 8 h.

For `CC[C@H](CO)Nc1nc(NCc2ccccc2)c2ncn(C(C)C)c2n1` [Roscovitin], in test [1] (100 μM), the “% G1” value worked out at 52%, the “% G2” value is listed as 13%, the “% S” value was 36% and the Total cells amounted to 693. Also, the “EGFP-PSLD distribution and cell cycle arrest” value in test [1] (EGFP-PSLD stable cell lines, refers to Table 1) was “predominantly nuclear distribution of EGFP-PSLD and arrest in G1”.
